≈ marks a conversion by molar mass, not a printed value.
How the values were obtained:
M. globosa ATCC MYA-4612 = experiment: Disc-diffusion assay, perfumery materials in DMSO, M. globosa; format: cell-based, Malassezia globosa; settings: for zone of inhibition at 1 % / zone of inhibition at 0.2 % / zone of inhibition at 2 %: Malassezia globosa, 144 h; for Inhibition zone (mm) M. globosa: 20 μL on 6 mm disc, 6 days, NI means no inhibition zone
Protocol: (§1) Anti-Malassezia effect of perfumery materials in solvent in DMSO was determined using disc-diffusion assay, based on the method of J Mycol Infect 2018: 23: 91-98. In brief, working cultures of Malassezia strains were prepared from −80 C stock culture on mDixon agar plate (for M. furfur DSM 6170) or mLN agar plate (for M. restricta ATCC MYA-4611 and M. globosa ATCC MYA-4612), and cells were suspended in 0.9% saline, and spread onto mDixon or mLN agar surface to prepare lawn plate. Test samples solutions are prepared in DMSO to final concentrations of 0.2%, 1% or 2%. Discs (Whatman, 6 mm in diameter) were placed on inoculated agar plates with each Malassezia strains respectively, including M. furfur DSM 6170, M. restricta ATCC MYA-4611, and M. globosa ATCC MYA-4612. Aliquots (20 μL) of each sample solution was added to each disc. Agar plates were incubated at 30° C. for 3 days for M. furfur DSM 6170, and 6 days for M. restricta ATCC MYA-4611, and M. globosa ATCC MYA-4612. After incubation, diameters of the clear inhibition zones around the discs were measured. Inhibition zone greater than 6 mm are regarded as having anti-Malassezia effect.

[1] = system: M. restricta ATCC MYA-4611; experiment: Disc-diffusion assay, perfumery materials in DMSO, M. restricta; format: cell-based, Malassezia restricta; settings: for zone of inhibition at 1 % / zone of inhibition at 0.2 % / zone of inhibition at 2 %: Malassezia restricta, 144 h; for Inhibition zone (mm) M. restricta: 20 μL on 6 mm disc, 6 days, NI means no inhibition zone
Protocol: as §1

M. restricta [2] = experiment: Disc-diffusion assay, additional perfumery materials in DMSO, M. restricta, 4 days; format: cell-based, Malassezia restricta; settings: 4 days; for zone of inhibition at 0.5 %: Malassezia restricta, 96 h, read-out: Inhibition zone diameter (mm) on M. restricta
Protocol: (§2) Anti-Malassezia effect of additional perfumery materials in DMSO was determined using disc-diffusion assay as described previously. Test samples solutions were prepared in DMSO to final concentrations of 0.5%, 1% or 2%. Discs (Whatman, 6 mm in diameter) were placed on inoculated agar plates. Aliquots (20 μL) of each sample solution was added to each disc. Agar plates were incubated at 30° C. for 4 days. After incubation, diameters of the clear inhibition zones around the discs were recorded
as §2, with “above.” for “previously.”, “recorded.” for “recorded”
Anti-Malassezia effect of additional perfumery materials in solvent in DMSO was determined using disc-diffusion assay, as described previously. Test samples solutions are prepared in DMSO to final concentrations of 0.5%. Discs (Whatman, 6 mm in diameter) were placed on inoculated agar plates. Aliquots (20 μL) of each sample solution was added to each disc. Agar plates were incubated at 30° C. for 4 days. After incubation, diameters of the clear inhibition zones around the discs were measured.

[3] = system: Staphylococcus aureus ATCC 6538; experiment: MIC assay on Staphylococcus aureus ATCC 6538; format: cell-based; settings: TSB, 37° C., 24 h aerobically, dilutions 29 to 10000 ppm; for MIC: Staphylococcus aureus, ATCC6538, read-out: MIC (ppm) S. aureus
Protocol: MIC assay for Staphylococcus aureus ATCC 6538 is based on Clinical Laboratory Standard Institute: CLSI/NCCLS M07-A8. Cell suspension of working cultures of S. aureus was prepared following the instructions of culture provider ATCC, USA.
(§3) A total of 26 perfumery materials were examined for an inhibition effect on Malassezia furfur and Staphylococcus aureus.

[4] = system: Malassezia furfur DSM 6170; experiment: MIC assay on Malassezia furfur DSM 6170 (resazurin); format: cell-based; settings: 30° C., 48 h aerobically, dilutions 29 to 10000 ppm; for MIC: Malassezia furfur, DSM6170
Protocol: The MIC assay for Malassezia furfur DSM 6170 was modified based on the method in Journal of Clinical Microbiology 2017, Vol 55: 1883-1893. In brief, working culture was prepared from stock cultures stored at −80° C. to obtain a cell suspension as the inoculum. Serial dilutions of samples, 29 to 10000 ppm, were tested to determine the MIC values for growth of Malassezia furfur DSM 6170 after at 30° C. for 48 h aerobically. Resazurin was used as growth indicator.
as §3

M. furfur DSM 6170 = experiment: Disc-diffusion assay, perfumery materials in DMSO, M. furfur; format: cell-based, Malassezia furfur; settings: for zone of inhibition at 2 %: Malassezia furfur, DSM6170, 72 h
Protocol: as §1

M. restricta [5] = experiment: Disc-diffusion assay, combinations with piroctone olamine (PO) in DMSO, M. restricta; format: cell-based, Malassezia restricta; settings: 4 days, ratio greater than 1.0 = boosting effect
Protocol: Anti-Malassezia effect of combinations of PO and perfumery materials in solvent DMSO against M. restricta was determined using disc-diffusion assay as described above. Aliquots (20 μL) of each sample solution was added to each disc. Agar plates were incubated at 30° C. for 4 days. After incubation, diameters of the clear inhibition zones around the discs were measured. Ratio of inhibition zone diameter of each combination to that of PO only were calculated. […] Anti-Malassezia effect of combinations of PO and perfumery raw materials mixtures in solvent DMSO was determined using disc-diffusion assay, as described above. Aliquots (20 μL) of each sample solution was added to each disc. Agar plates were incubated at 30° C. for 4 days. After incubation, diameters of the clear inhibition zones around the discs were measured. Ratio of inhibition zone diameter of each combination to that of PO only were calculated.

| Molecule | zone of inhibition at 1 % (M. globosa ATCC MYA-4612) [mm] | zone of inhibition at 1 % [1] [mm] | MIC [3] [µg/mL] | MIC [4] [µg/mL] | zone of inhibition at 0.2 % (M. globosa ATCC MYA-4612) [mm] | zone of inhibition at 0.2 % [1] [mm] | further results |
| --- | --- | --- | --- | --- | --- | --- | --- |
| CC(C=O)Cc1ccc(C(C)C)cc1 (racemic) [cyclamen aldehyde, (+/−)-3-(4-isopropylphenyl)-2-methylpropanal] | 6.7 | 8.2 | 933 (≈ 4900 µM) |  |  |  | zone of inhibition at 0.5 % (M. restricta [2]; Table 20, 0.5% in DMSO): 7.5 mm |
| CCOC(=O)C(C)CC (racemic) [ethyl 2-methyl butanoate, (+/−)-ethyl 2-methylbutanoate] | 6.6 |  |  |  |  |  |  |
| CC(C)c1cccc(C(C)CC=O)c1 (racemic) [floral butanal, (+/−)-3-(3-isopropylphenyl)butanal] |  | 8.2 | 387 (≈ 2030 µM) | 1300 (≈ 6830 µM) |  |  | zone of inhibition at 0.5 % (M. restricta [2]; Table 20, 0.5% in DMSO): 7.5 mm |
| CCCCCCCCC1CCC(=O)O1 (racemic) [gamma-dodecalactone, (+/−)-5-octyldihydro-2(3h)-furanone] |  |  | 173 (≈ 872 µM) | 148 (≈ 746 µM) | 6.3 |  | zone of inhibition at 2 % (M. furfur DSM 6170): 6.9 mm |
| CC(C=O)Cc1ccc(C(C)(C)C)cc1 (racemic) [lilial, (+/−)-2-methyl-3-[4-(2-methyl-2-propanyl)phenyl]propanal] | 7.4 |  | 325 (≈ 1590 µM) |  |  |  |  |
| CCCCC[C@H]1C(=O)CC[C@@H]1CC(=O)OC (racemic) [methyl dihydrojasmonate, methyl 2-((1 RS,2RS)-3-oxo-2-pentylcyclopentyl)acetate] |  |  | 330 (≈ 1460 µM) | 222 (≈ 981 µM) |  | 6.1 |  |
| COc1ccc(CC(C)C=O)cc1 (racemic) [para-anisyl propanal, (+/−)-3-(4-methoxyphenyl)-2-methylpropanal] | 11.6 | 14.3 | 530 (≈ 2970 µM) | 222 (≈ 1250 µM) |  | 6.6 | Ratio of inhibition zone diameter (0.5% PRM + 0.1% PO) to 0.1% PO (M. restricta [5]): 2.0; Ratio of inhibition zone diameter (1% PRM + 0.35% PO) to 0.35% PO (M. restricta [5]): 1.5 |
| CCCCC(CC)CO (stereo not drawn) [2-ethyl-1-hexanol] | 6.7 | 6.4 | 867 (≈ 6660 µM) | 44 (≈ 338 µM) |  |  | zone of inhibition at 2 % (M. furfur DSM 6170): 7.6 mm |
| CCCCCc1cc(C)ccn1 [4-methyl-2-pentylpyridine] |  |  | 693 (≈ 4240 µM) | 222 (≈ 1360 µM) | 6.7 | 6.6 | zone of inhibition at 2 % (M. furfur DSM 6170): 6.7 mm |
| CCCCCCCCC/C=C/C=O [(2E)-2-dodecenal] | 15.2 | 14.4 | 49 (≈ 269 µM) | 148 (≈ 812 µM) |  | 10 | Ratio of inhibition zone diameter (0.5% PRM + 0.1% PO) to 0.1% PO (M. restricta [5]): 2.1; Ratio of inhibition zone diameter (1% PRM + 0.35% PO) to 0.35% PO (M. restricta [5]): 1.2; zone of inhibition at 2 % (M. furfur DSM 6170): 12.6 mm; zone of inhibition at 2 % (M. globosa ATCC MYA-4612): 17.9 mm; zone of inhibition at 2 % [1]: 18.1 mm |
| CCCCCCCCCCO [Mix 1-decanol, 1-decanol] | 15.9 | 10 | 370 (≈ 2340 µM) | 500 (≈ 3160 µM) | 6.7 | 8.5 | zone of inhibition at 2 % (M. globosa ATCC MYA-4612): 16.4 mm; zone of inhibition at 2 % [1]: 25 mm |
| CCCCCCCCCCCCO [Mix 1-dodecanol, 1-dodecanol] | 10.2 | 11.5 | 22 (≈ 118 µM) |  | 8.7 | 6.8 |  |
| CCCCCCO [Mix 1-hexanol, 1-hexanol] |  | 6.7 |  |  |  |  |  |
| C=CCCCCCCCCC=O [Mix 10-undecenal, 10-undecenal] | 14.1 | 12.7 |  |  | 7.1 | 6.5 |  |
| CC(C)(C)c1ccc(CCC=O)cc1 [cyclamen propanal, 3-(4-tert-butylphenyl)propanal] |  |  |  |  | 6.3 | 6.6 | zone of inhibition at 2 % (M. globosa ATCC MYA-4612): 7.9 mm; zone of inhibition at 2 % [1]: 12.3 mm |
| CCCCCCCCCC(=O)O [decanoic acid] |  |  |  |  |  |  | Ratio of inhibition zone diameter (1% PRM + 0.35% PO) to 0.35% PO (M. restricta [5]): 1.1 |
| CCCCCCC1CCCC(=O)O1 (stereo not drawn) [delta-undecalactone, 6-hexyltetrahydro-2H-pyran-2-one] |  |  | 293 (≈ 1590 µM) | 333 (≈ 1810 µM) | 6.4 | 6.1 |  |
| CCOc1cc(C=O)ccc1O [ethyl vanillin, 3-ethoxy-4-hydroxybenzaldehyde] |  |  | 2670 (≈ 16000 µM) | 500 (≈ 3010 µM) |  |  | zone of inhibition at 2 % [1]: 19.5 mm |
| c1ccc2[nH]ccc2c1 [indole] | 15.2 |  | 693 (≈ 5920 µM) | 259 (≈ 2210 µM) | 6.3 |  |  |
| COC(=O)c1c(C)cc(O)c(C)c1O [methyl 2,4-dihydroxy-3,6-dimethylbenzoate] |  |  | 111 (≈ 566 µM) | 290 (≈ 1480 µM) | 7.4 | 6.3 | zone of inhibition at 2 % (M. furfur DSM 6170): 7 mm; zone of inhibition at 2 % (M. globosa ATCC MYA-4612): 9.2 mm; zone of inhibition at 2 % [1]: 12 mm |
| CCCCCCC#CC(=O)OC [methyl octine carbonate, methyl 2-nonynoate] | 10.3 | 6.7 |  |  |  | 6.4 |  |
| CCCCCCCCC(=O)O [nonanoic acid] |  |  |  |  |  |  | Ratio of inhibition zone diameter (0.5% PRM + 0.1% PO) to 0.1% PO (M. restricta [5]): 1.1; Ratio of inhibition zone diameter (1% PRM + 0.35% PO) to 0.35% PO (M. restricta [5]): 1.2 |
| CCCCCCCC(=O)O [octanoic acid] |  |  |  |  |  |  | Ratio of inhibition zone diameter (1% PRM + 0.35% PO) to 0.35% PO (M. restricta [5]): 1.1 |
| CC(C)C1CCC(CO)CC1 (stereo not drawn) [p-menthan-7-ol] |  |  | 625 (≈ 4000 µM) | 222 (≈ 1420 µM) | 6.5 | 6.7 | zone of inhibition at 2 % (M. furfur DSM 6170): 6.3 mm |
| COc1ccc(C=O)cc1 [para-anisaldehyde, 4-methoxybenzaldehyde] |  |  |  | 500 (≈ 3670 µM) |  |  | zone of inhibition at 2 % [1]: 13.4 mm |
| (+/−)-(4Z)-4,8-dimethyl-4,9-decadienal + (+/−)-(4E)-4,8-dimethyl-4,9-decadienal |  |  |  |  |  |  | Inhibition zone diameter (mm) (M. restricta [2]; Table 19, in DMSO (0.5%, 1% or 2%, not specified per value), M. restricta): 7.3 mm |
| cis-4-(2-methyl-2-propanyl)cyclohexyl acetate + trans-4-(2-methyl-2-propanyl)cyclohexyl acetate |  |  |  |  |  |  | Inhibition zone diameter (mm) on M. restricta (M. restricta [2]; Table 20, 0.5% in DMSO): 7.2 mm |
| cyclopropylmethyl (3Z)-3-hexenoate + cyclopropylmethyl (3E)-3-hexenoate |  |  |  |  |  |  | Inhibition zone (mm) M. furfur (M. furfur DSM 6170; 2% in DMSO, 20 μL on 6 mm disc, 3 days, NI means no inhibition zone): 8.0 mm; Inhibition zone (mm) M. globosa (M. globosa ATCC MYA-4612; 0.2% in DMSO): 8.7 mm; Inhibition zone (mm) M. globosa (M. globosa ATCC MYA-4612; 2% in DMSO): 13.0 mm; MIC (ppm) M. furfur [4]: 333 ppm; Inhibition zone (mm) M. restricta ([1]; 0.2% in DMSO): 6.3 mm; Inhibition zone (mm) M. restricta ([1]; 2% in DMSO): 11.0 mm; MIC (ppm) S. aureus [3]: 625 ppm |
